In US20210228525A1, “Methods of Administering Monomethyl Fumarate and Prodrugs Thereof Having Reduced Side Effects” (Arbor Pharmaceuticals, LLC, priority 2012, published 2021):

Assay: Randomized double-blind crossover food effect single-dose study: safety and tolerability (flushing, feeling hot)
Format: in vivo, human
Details: for Subjects reporting flushing: fasted group; for Subjects reporting feeling hot more than for placebo: fed or fasted groups
Excerpt: Twenty-four healthy adult volunteers (males and females) participated in the study. Twelve of the subjects received a dosage form of Example 3, once in a fed condition and once in a fasted condition, with a two-week washout between treatments. The fasted dosing was achieved by dosing the subject following an overnight fast while the fed dosing was achieved by dosing the subject after consuming a high fat-content breakfast.
Twelve healthy adult volunteers (males and females) participated in the study. All twelve subjects received a dosage form of Example 5, once in a fed condition and once in a fasted condition, with a two-week washout between treatments. The fasted dosing was achieved by dosing the subject following an overnight fast while the fed dosing was achieved by dosing the subject after consuming a high fat-content breakfast.
Twelve healthy adult volunteers (males and females) participated in the study. All twelve subjects received a dosage form of Example 10, once in a fed condition and once in a fasted condition, with a two-week washout between treatments. The fasted dosing was achieved by dosing the subject following an overnight fast while the fed dosing was achieved by dosing the subject after consuming a high fat-content breakfast.

[1] = Example 3 dosage form, 200 mg single dose
[2] = Example 5 dosage form, 200 mg single dose
[3] = Example 10 dosage form, single dose

SMILES: CCN(CC)C(=O)COC(=O)/C=C/C(=O)OC [Compound (1), (N,N-Diethylcarbamoyl)methyl methyl (2E)but-2-ene-1,4-dioate]
- Severity of all adverse events [1]: mild
- Tolerability during the trial [1]: well tolerated
- Subjects reporting flushing (Example 3 dosage form): No subjects
- Subjects reporting flushing more frequently than in the fed placebo group (Example 3 dosage form): One
- Subjects reporting feeling hot more than for placebo (Example 3 dosage form): no subjects
- Severity of all adverse events [2]: mild
- Tolerability during the trial [2]: well tolerated
- Subjects reporting flushing (Example 5 dosage form): No subjects
- Subjects reporting flushing more frequently than in the fed placebo group (Example 5 dosage form): Two
- Subjects reporting feeling hot more than for placebo (Example 5 dosage form): no subjects
- Adverse events reported in more than one subject and more frequently than for placebo [3]: flushing and feeling hot
- Severity of all adverse events [3]: mild
- Tolerability during the trial [3]: well tolerated
